According to patent publication US10399965B2 (INNOVATIVE PHARMACOLOGY RESEARCH OOO (IPHAR), priority 2016, dated 2019):

How the values were obtained:
[1] = target: T1, Recombinant human tyrosyl-DNA-phosphodiesterase 1 (Tdp1) (Homo sapiens, UniProt Q9NUW8); assay: Tdp1 inhibition, removal of BHQ1 quencher from 3'-end of FAM-labelled oligonucleotide (fluorescence); type: biochemical; details: 1.3 nM Tdp1, 50 nM oligonucleotide, pH 8.0; read-out: IC50 (concentration of an inhibitor that reduces an enzyme's activity by half) towards Tdp1
T1 construct: made in house; host or cells: Escherichia coli
Excerpt: Recombinant human tyrosyl-DNA-phosphodiesterase 1 (EC number 3.1.4.) was expressed in an Escherichia coli system (plasmid pET 16B-Tdp1 provided by Dr. K. W. Caldecott, Sussex University, UK) and isolated as described in [2, 32]. The reaction of removing Black Hole Quencher 1 (BHQ1) from 3′-end of an oligonucleotide, catalyzed by Tdp1, is used as the test system for determining the inhibitory properties of the test compounds. At the 5′-end of an oligonucleotide there is (5,6)-FAM, a fluorophore whose fluorescence intensity increases after removing the quencher. POLARstar OPTIMA fluorimeter (BMG LABTECH) was used to measure fluorescence.
The reaction mixtures (volume 200 μl) contained the buffer (50 mM Tris-HCl, pH 8.0; 50 mM NaCl; 7 mM mercaptoethanol), 50 nM oligonucleotide and different concentrations of the inhibitor. The reaction was initiated by adding Tdp1 to a final concentration of 1.3 nM. The measurements were performed in linear range of dependence of reaction rate to time (up to 8 minutes) each 55 seconds. The action of the disclosed compounds was assessed by IC50 value (concentration of an inhibitor that reduces an enzyme's activity by half). IC50 value was calculated using MARS Data Analisys 2.0 software (BMG LABTECH).
A typical curve of relation of inhibitor concentration to the rate of reaction, catalyzed by Tdp1, is presented at FIG. 2.

[2] = Acute toxicity in mice, single oral administration; details: CD-1, mouse, in vivo, oral; per os, male mice, single dose
Description: (§1) Assessment of acute toxicity of the disclosed compound was performed using outbred male CD-1 mice with SPF status. The test compound was administered in 62.5 mg/kg, 125 mg/kg, 250 mg/kg, 500 mg/kg, 1000 mg/kg, 2000 mg/kg and 5000 mg/kg doses (5 animals per group) in 0.5 ml volume once orally as a suspension in 0.5% aqueous solution of carboxymethyl cellulose.

outbred male CD-1 mice = assay: Acute toxicity in mice, single oral administration; details: male, CD-1, mouse, in vivo
Description: as §1

T1 sequence (Q9NUW8 whole entry): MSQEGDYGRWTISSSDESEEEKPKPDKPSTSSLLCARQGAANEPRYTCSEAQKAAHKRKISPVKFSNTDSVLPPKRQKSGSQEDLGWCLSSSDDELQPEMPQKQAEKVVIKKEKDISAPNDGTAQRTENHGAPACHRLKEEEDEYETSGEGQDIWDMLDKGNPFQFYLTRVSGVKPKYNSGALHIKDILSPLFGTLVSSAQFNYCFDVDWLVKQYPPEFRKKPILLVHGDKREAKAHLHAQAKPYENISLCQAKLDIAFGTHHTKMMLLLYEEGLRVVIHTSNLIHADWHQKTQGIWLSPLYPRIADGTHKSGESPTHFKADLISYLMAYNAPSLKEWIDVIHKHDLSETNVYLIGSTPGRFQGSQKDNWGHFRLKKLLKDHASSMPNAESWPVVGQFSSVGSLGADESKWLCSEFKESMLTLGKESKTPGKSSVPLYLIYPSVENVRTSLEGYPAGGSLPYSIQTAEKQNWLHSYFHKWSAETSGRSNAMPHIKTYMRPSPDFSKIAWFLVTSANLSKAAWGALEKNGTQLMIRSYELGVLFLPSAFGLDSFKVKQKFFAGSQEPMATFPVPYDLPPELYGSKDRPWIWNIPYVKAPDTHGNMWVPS

## CC(=O)C1=C(O)C=C2Oc3c(-c4csc(N/N=C/c5ccc(Br)cc5)n4)c(O)c(C)c(O)c3C2(C)C1=O (stereo not drawn) [Compound I, 2-acetyl-6-(2-(2-(4-bromobenzylidene)hydrazinyl)thiazole-4-yl)-3,7,9-trihydroxy-8,9b-dimethyldibenzo[b,d] furan-1(9bh)-one]
[1]
  IC50: 26 ± 11 nM
[2]
  LD50: > 5000 mg/kg
Outbred male CD-1 mice
  maximal tolerated dose: no less than 5000 mg/kg
